Measurements reported in ChEMBL document CHEMBL6071121, “Synthetic approaches and clinical application of small-molecule inhibitors of sodium-dependent glucose transporters 2 for the treatment of type 2 diabetes mellitus” (Eur J Med Chem, 2024).
One block for each compound: values may come before it.

Experiments:
[1] = biological target: T1, Sodium/glucose cotransporter 2 (Homo sapiens, UniProt P31639); assay: Inhibition of human SGLT2
T1 sequence (P31639 whole entry): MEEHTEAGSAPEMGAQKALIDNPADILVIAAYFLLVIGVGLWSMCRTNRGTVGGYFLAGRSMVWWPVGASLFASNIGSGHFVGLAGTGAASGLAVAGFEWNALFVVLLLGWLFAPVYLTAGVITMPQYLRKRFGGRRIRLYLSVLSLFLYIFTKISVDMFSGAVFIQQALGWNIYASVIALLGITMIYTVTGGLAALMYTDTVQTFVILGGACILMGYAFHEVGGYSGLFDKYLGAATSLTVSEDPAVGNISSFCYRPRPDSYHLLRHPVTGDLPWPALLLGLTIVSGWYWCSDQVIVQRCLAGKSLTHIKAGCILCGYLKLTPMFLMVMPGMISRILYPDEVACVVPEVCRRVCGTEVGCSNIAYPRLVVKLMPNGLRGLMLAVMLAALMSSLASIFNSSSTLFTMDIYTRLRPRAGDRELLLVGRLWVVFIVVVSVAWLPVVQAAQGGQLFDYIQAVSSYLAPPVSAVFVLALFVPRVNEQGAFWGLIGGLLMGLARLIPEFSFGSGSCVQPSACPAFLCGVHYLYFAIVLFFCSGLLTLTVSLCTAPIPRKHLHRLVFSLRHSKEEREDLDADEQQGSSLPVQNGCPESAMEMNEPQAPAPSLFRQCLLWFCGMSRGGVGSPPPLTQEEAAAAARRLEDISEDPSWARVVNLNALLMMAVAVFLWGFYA

[2] = biological target: T2, Sodium/glucose cotransporter 2 (Rattus norvegicus, UniProt P53792); assay: Inhibition of rat SGLT2
T2 sequence (P53792 whole entry): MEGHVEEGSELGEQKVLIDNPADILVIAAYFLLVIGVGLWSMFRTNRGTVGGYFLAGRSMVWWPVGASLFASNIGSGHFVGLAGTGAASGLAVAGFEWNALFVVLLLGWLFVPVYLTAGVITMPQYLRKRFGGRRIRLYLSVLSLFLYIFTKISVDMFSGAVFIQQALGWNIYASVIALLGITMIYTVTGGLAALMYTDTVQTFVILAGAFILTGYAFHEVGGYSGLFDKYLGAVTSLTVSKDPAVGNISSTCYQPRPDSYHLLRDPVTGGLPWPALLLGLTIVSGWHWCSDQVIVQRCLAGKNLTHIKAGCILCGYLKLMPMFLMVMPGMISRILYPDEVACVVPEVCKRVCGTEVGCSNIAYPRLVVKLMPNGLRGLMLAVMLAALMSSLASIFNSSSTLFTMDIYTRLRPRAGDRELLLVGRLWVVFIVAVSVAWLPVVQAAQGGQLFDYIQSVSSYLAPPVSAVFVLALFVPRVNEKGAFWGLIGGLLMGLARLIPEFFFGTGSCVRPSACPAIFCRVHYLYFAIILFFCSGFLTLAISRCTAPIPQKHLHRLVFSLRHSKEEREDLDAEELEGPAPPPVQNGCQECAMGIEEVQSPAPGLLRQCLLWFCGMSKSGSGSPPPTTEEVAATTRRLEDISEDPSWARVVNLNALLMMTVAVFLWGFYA

[3] = biological target: T1, Sodium/glucose cotransporter 2; assay: Inhibition of human SGLT2 expressed in HEK293 cells using 14C-AMG as substrate preincubated for 15 mins followed by substrate addition measured after 2 hrs by liquid scintillation counter analysis; type: cell-based
[4] = biological target: T3, Sodium/glucose cotransporter 1 (Homo sapiens, UniProt P13866); assay: Inhibition of human SGLT1 expressed in HEK293 cells using 14C-AMG as substrate preincubated for 15 mins followed by substrate addition measured after 2 hrs by liquid scintillation counter analysis; type: cell-based
T3 sequence (P13866 whole entry): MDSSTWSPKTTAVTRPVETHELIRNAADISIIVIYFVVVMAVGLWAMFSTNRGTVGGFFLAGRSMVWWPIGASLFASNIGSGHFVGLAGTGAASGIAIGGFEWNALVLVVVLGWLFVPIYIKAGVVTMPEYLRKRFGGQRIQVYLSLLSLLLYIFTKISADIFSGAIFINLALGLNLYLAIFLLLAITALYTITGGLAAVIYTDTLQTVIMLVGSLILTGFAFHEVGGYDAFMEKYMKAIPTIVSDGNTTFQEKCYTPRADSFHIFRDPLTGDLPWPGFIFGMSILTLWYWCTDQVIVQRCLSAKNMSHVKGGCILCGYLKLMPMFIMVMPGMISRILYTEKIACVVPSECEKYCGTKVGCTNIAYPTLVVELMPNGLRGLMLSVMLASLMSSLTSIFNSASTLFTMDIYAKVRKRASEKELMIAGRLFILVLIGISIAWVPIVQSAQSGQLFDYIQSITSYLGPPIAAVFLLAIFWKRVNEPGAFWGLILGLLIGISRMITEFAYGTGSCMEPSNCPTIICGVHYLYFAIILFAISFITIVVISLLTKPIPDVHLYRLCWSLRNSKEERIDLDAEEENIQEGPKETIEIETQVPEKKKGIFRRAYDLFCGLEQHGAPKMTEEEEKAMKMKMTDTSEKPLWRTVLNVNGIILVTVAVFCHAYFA

[5] = biological target: T4, Sodium/glucose cotransporter 2 (Mus musculus, UniProt Q923I7); assay: Inhibition of mouse SGLT2
T4 sequence (Q923I7 whole entry): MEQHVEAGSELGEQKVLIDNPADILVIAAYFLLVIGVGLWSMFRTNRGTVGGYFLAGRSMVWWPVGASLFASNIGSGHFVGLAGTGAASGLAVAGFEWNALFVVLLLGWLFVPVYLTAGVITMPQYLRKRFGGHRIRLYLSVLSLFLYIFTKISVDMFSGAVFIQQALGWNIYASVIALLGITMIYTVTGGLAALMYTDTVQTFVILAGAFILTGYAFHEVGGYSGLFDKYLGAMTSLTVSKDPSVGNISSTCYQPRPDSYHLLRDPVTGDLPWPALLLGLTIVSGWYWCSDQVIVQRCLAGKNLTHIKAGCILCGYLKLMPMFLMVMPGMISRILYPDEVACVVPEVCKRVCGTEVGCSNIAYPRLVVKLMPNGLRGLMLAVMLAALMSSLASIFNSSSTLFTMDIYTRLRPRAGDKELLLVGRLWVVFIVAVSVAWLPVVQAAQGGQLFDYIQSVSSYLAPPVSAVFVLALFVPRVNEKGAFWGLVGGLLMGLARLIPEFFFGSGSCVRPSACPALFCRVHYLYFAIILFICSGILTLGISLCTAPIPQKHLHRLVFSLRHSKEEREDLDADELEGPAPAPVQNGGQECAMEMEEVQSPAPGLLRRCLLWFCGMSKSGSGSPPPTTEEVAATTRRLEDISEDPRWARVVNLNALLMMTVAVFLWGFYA

[6] = biological target: T5, Sodium/glucose cotransporter 2 (Mus musculus) (UniProt Q923I7); assay: In vivo inhibition of SGLT2-mediated reduction in urinary glucose excretion in mouse administered orally; type: functional, organism-based; details: route po
T5 sequence (whole entry): T4 sequence (Q923I7 whole entry)

[7] = biological target: T3, Sodium/glucose cotransporter 1; assay: Inhibition of SGLT1 (unknown origin)
[8] = biological target: T6, Sodium/glucose cotransporter 2 (Rattus norvegicus) (UniProt P53792); assay: In vivo inhibition of SGLT2-mediated reduction in urinary glucose excretion in rat administered orally; type: functional, organism-based; details: route po
T6 sequence (whole entry): T2 sequence (P53792 whole entry)

[9] = biological target: T5, Sodium/glucose cotransporter 2 (Mus musculus); assay: In vivo inhibition of SGLT2-mediated increase in blood glucose level in mouse administered orally; type: functional, organism-based; details: route po
[10] = biological target: T5, Sodium/glucose cotransporter 2 (Mus musculus); assay: In vivo inhibition of SGLT2-mediated increase in blood glucose level in mouse administered intraperitoneally; type: functional, organism-based; details: route ip

Ki [1]: 1950 nM | Ki [2]: 2140 nM
Compound: CCOC(=O)OC[C@H]1O[C@@H](Oc2nn(C(C)C)c(C)c2Cc2ccc(OC(C)C)cc2)[C@H](O)[C@@H](O)[C@@H]1O [REMOGLIFLOZIN ETABONATE]

IC50 [3]: 2.38 nM | IC50 [4]: 4320 nM
Compound: CCOc1ccc(Cc2cc([C@@]34OC[C@@](CO)(O3)[C@@H](O)[C@H](O)[C@H]4O)ccc2Cl)cc1F [HENAGLIFLOZIN]

Ki [1]: 2.9 nM | Ki [2]: 14.9 nM | Ki [5]: 6.4 nM
Compound: CCc1ccc(Cc2ccc3c(c2)[C@]2(OC3)O[C@H](CO)[C@@H](O)[C@H](O)[C@H]2O)cc1 [TOFOGLIFLOZIN]

ID30 [6]: 79 mg/kg | IC50 [7]: > 10000 nM | ID30 [8]: 39.8 mg/kg | ID50 [9]: 26.1 mg/kg | ID50 [10]: 13.2 mg/kg
Compound: COc1ccc(Cc2sccc2O[C@@H]2O[C@H](CO)[C@@H](O)[C@H](O)[C@H]2O)cc1 [ATIGLIFLOZIN]
